Test results published in ChEMBL document CHEMBL1201862, “PubChem BioAssay data set” (2004).
Activity calls are given as the source filed them.

How the values were obtained:
[1] = A Cell Based Secondary Assay To Explore Cytotoxicity of Compounds that Sensitize Mycobacterium Tuberculosis to Beta-Lactam Antibiotics.; type: functional
[2] = biological target: Neurotensin receptor type 1 (Homo sapiens, UniProt P30989); type: functional;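 also: Image-based confirmatory dose-response assay measuring agonist activity at NTR1; NTR1-expressing U2OS osteosarcoma cells imaged for beta-arrestin GFP spot formation; agonist potency where compounds increase beta-arrestin recruitment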
Neurotensin receptor type 1, sequence (P30989 whole entry): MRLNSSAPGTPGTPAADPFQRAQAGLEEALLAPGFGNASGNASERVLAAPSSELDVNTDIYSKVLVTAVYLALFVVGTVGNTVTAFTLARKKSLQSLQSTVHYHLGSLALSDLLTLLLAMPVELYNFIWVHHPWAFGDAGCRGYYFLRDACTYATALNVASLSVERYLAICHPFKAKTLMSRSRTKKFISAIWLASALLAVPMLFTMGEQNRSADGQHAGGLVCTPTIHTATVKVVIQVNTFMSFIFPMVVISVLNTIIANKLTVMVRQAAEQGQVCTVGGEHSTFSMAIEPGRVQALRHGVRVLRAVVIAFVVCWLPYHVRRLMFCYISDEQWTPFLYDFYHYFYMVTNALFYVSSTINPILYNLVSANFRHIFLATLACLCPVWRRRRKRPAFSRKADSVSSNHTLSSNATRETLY

[3] = biological target: T1, Corticotropin-releasing factor receptor 2/Corticotropin-releasing factor-binding protein (Homo sapiens, UniProt P24387+Q13324); assay: activators of CRF receptor 2 with binding protein – uHTS hits, confirmation (AID 602473); type: functional; details: read-out: EC50_Mean
T1 sequence (Q13324 whole entry): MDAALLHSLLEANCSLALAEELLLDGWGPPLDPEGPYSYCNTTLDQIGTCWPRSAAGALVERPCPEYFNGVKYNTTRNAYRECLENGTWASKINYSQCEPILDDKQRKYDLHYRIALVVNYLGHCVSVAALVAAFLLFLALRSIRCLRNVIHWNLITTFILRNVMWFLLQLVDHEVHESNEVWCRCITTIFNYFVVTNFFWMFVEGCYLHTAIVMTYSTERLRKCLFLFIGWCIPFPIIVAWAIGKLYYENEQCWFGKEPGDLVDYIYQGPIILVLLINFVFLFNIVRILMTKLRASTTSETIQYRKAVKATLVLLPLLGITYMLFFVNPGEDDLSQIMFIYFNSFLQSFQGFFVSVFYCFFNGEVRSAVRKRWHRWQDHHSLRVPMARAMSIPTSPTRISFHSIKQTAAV
T1 sequence (P24387 whole entry): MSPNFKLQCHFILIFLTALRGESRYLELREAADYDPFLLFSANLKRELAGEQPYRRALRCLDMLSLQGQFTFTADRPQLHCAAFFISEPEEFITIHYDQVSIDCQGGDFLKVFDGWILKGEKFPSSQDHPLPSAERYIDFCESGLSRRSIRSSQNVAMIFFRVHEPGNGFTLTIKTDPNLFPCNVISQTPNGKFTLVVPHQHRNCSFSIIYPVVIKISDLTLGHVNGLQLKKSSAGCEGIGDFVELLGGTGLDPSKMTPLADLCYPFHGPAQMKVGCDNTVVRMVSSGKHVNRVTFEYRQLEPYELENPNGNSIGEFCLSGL

Hexokinase = Hexokinase (Trypanosoma brucei, UniProt Q38C41); assay: Confirmation assay for inhibitors of Trypanosoma brucei hexokinase 1-Analogue-first series. [Related pubchem assays (depositor defined):AID1430, AID1632, AID2516, AID2560, AID2579, AID2600, AID449725, AID492951]; type: functional
Hexokinase, sequence (Q38C41 whole entry): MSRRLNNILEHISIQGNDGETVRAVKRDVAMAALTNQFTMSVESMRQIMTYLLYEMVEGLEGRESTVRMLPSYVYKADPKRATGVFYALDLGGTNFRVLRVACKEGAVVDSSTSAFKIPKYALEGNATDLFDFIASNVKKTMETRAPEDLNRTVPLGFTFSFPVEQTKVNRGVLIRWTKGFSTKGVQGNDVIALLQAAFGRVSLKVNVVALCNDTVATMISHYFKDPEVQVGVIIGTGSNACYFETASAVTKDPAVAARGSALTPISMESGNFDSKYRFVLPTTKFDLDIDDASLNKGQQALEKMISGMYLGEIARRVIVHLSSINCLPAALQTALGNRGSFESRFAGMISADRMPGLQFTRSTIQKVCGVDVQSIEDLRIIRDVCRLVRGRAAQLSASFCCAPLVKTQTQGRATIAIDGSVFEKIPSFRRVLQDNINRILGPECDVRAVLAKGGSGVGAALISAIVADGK

[4] = biological target: Eukaryotic translation initiation factor 4H (Homo sapiens, UniProt Q15056); assay: human eIF4H binding inhibitors, primary screen, translation initiation inhibitor project, biochemical, uHTS, fluorescence polarization (AID 2012)
[5] = C. albicans growth with fluconazole, confirmation, fluorescence, retest (AID 2467); type: functional, cell-based
[6] = biological target: Polyadenylate-binding protein 1 (Homo sapiens, UniProt P11940); assay: PABP poly(A) RNA binding inhibitors, primary screen, biochemical, fluorescence polarization, uHTS (AID 2014)
Polyadenylate-binding protein 1, sequence (P11940 whole entry): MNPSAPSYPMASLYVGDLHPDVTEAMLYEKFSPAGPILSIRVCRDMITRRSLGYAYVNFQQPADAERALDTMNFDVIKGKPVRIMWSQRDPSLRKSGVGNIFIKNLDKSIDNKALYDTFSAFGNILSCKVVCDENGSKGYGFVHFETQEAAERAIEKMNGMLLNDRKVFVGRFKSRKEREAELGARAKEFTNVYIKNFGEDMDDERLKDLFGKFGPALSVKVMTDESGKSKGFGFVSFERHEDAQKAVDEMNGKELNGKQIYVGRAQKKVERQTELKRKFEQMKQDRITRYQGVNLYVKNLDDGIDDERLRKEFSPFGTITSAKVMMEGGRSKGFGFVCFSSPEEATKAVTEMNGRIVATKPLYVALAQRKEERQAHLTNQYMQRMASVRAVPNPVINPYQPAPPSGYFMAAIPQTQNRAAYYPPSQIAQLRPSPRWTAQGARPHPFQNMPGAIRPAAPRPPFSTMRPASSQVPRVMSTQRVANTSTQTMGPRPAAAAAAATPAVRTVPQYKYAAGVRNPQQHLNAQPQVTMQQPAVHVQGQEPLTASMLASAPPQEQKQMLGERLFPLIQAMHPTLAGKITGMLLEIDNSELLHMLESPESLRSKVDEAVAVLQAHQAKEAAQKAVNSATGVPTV

[7] = biological target: T2, Long-chain-fatty-acid--AMP ligase FadD28 (Mycobacterium tuberculosis, UniProt P9WQ59); assay: Fluorescence polarization aasay to screen for inhibitors that compete for the binding of FadD28 to a bisubstrate Measured in Biochemical System Using Plate Reader - 2147-01_Inhibitor_Dose_CherryPick_Activity.; type: functional, Mycobacterium tuberculosis H37Rv
T2 sequence (P9WQ59 whole entry): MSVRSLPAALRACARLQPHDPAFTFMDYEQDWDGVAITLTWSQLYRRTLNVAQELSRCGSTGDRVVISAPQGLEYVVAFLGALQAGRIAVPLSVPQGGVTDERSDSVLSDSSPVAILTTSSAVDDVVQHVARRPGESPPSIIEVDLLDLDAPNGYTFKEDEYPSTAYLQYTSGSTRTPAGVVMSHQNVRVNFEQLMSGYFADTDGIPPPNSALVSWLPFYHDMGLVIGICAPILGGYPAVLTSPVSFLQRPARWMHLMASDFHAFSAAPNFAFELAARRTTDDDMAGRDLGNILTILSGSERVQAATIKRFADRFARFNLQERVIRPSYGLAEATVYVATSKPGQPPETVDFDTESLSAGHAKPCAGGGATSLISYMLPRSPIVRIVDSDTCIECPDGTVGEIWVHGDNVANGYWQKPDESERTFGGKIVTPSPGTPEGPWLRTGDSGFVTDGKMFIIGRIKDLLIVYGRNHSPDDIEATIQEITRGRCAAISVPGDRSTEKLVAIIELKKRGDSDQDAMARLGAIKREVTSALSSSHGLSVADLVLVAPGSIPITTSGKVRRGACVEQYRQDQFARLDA

[8] = biological target: T3, Voltage-gated N-type calcium channel alpha-1B subunit/Amyloid beta A4 precursor protein-binding family A member 1 (Homo sapiens, UniProt Q00975+Q02410); type: protein assay
T3 sequence (Q00975 whole entry): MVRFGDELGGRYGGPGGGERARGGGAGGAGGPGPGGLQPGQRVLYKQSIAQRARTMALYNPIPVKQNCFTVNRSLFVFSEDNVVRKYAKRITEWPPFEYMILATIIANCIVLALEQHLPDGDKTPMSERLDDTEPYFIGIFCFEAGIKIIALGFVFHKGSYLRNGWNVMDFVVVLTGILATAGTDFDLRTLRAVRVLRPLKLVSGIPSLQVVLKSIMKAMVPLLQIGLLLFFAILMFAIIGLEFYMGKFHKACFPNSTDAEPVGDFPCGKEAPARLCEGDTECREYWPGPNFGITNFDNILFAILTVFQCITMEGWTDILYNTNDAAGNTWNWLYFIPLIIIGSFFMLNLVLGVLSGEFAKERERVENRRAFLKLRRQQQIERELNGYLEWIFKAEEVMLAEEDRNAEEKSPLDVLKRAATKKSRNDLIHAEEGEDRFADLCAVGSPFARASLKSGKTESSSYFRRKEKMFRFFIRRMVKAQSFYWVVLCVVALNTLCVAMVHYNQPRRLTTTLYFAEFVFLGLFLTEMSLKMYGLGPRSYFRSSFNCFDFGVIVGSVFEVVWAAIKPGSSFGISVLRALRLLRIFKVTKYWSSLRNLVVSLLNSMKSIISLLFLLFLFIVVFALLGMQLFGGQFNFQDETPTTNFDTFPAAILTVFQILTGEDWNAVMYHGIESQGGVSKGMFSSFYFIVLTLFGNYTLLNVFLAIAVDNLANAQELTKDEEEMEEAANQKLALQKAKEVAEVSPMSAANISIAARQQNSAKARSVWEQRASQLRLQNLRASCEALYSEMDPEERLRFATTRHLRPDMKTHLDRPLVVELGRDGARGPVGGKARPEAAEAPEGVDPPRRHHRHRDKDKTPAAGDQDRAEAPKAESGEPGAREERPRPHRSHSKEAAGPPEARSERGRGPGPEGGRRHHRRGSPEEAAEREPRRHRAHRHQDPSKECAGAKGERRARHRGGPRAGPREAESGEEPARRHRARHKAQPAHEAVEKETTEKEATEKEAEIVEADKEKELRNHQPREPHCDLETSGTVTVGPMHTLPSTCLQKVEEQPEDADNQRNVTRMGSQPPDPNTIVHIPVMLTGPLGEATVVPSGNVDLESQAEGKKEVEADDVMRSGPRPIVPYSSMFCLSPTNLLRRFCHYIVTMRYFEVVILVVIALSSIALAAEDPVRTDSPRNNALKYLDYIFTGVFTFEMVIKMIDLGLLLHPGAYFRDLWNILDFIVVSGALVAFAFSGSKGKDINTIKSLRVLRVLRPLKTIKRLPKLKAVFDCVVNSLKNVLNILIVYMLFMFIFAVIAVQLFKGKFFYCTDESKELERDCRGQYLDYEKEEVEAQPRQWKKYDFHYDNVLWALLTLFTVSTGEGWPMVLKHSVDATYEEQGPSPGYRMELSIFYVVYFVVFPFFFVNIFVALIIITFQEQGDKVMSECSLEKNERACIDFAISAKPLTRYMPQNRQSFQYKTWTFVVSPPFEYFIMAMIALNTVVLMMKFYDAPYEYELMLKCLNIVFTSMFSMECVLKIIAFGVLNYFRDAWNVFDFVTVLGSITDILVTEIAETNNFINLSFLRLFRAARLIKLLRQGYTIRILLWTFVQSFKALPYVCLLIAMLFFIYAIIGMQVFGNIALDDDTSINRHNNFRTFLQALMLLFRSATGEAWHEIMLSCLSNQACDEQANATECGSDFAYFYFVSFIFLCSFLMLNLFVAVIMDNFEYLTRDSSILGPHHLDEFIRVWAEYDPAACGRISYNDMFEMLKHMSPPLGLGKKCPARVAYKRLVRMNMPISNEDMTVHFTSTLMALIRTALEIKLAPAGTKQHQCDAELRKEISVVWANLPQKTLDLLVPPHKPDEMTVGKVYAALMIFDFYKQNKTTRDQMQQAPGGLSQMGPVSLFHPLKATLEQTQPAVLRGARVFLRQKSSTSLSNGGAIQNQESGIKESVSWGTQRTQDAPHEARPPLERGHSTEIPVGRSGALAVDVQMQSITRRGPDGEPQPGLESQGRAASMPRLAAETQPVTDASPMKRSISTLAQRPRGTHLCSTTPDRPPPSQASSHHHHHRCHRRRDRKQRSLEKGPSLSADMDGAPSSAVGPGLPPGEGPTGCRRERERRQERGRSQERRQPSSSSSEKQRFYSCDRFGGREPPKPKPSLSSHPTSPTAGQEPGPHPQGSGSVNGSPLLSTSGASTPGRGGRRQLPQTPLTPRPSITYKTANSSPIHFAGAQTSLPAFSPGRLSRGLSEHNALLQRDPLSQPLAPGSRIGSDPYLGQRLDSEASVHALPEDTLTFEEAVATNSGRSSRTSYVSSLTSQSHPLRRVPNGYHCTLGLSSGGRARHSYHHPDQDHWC
T3 sequence (Q02410 whole entry): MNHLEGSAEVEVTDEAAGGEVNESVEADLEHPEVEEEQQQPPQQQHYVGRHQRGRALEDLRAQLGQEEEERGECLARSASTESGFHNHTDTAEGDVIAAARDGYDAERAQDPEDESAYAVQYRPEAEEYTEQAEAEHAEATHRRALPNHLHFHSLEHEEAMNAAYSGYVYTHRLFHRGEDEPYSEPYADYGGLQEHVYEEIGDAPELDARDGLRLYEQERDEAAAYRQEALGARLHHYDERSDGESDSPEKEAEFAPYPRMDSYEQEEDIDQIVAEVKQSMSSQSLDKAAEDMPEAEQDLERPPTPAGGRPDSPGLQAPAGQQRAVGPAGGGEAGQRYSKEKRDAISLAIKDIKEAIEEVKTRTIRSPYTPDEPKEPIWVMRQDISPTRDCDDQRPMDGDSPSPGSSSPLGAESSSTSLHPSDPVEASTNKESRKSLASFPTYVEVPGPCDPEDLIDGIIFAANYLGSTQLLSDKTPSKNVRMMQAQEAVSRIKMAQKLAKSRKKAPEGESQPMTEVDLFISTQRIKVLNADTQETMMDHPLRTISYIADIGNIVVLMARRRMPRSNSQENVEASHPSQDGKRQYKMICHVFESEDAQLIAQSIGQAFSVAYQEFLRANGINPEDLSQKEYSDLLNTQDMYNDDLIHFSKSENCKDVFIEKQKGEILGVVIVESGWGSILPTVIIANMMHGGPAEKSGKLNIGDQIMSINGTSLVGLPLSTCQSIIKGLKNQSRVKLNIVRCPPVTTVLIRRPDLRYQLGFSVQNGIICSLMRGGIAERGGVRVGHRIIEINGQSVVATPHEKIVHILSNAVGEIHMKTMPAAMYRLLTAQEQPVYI

[9] = biological target: T3, Voltage-gated N-type calcium channel alpha-1B subunit/Amyloid beta A4 precursor protein-binding family A member 1; type: protein assay; remark: listed apart in the source
[10] = NIH-3T3 fibroblast cytotoxicity, dose response, cytotoxicity control, cell-based, fluorescence, Alamar Blue, secondary assay (AID 2327); type: functional;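 also: NIH-3T3 mouse fibroblasts cultured with fluconazole at 8 µg/mL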

CCOC(=O)c1sc(Nc2nc3c(OC)cccc3s2)cc1C
CC50 [1]: > 40 µM (active)

CC1(C)CC(=O)C(=Cc2cn(-c3ccccc3)nc2-c2ccc(Cl)cc2)C(=O)C1
EC50 [2]: 35.3 µM (inactive)
EC50 [3]: > 53 µM (inactive)

O=C(O)c1ccccc1NC(=O)c1ccccc1C(=O)O
IC50 (Hexokinase): > 25 µM (inactive)

COc1ccc(C(=O)NC(CC(=O)O)c2ccccc2)cc1 (stereo not drawn)
IC50 (Hexokinase): > 25 µM (inactive)

Cc1ccc(C(C)C)c(OCc2ccc(C(=O)N/N=C/c3ccc(C(=O)O)cc3)cc2)c1
CC50 [1]: > 40 µM (active)

NC(=S)n1[nH]c(-c2ccc([N+](=O)[O-])cc2)c(/N=N/c2cccc([N+](=O)[O-])c2)c1=O
IC50 [4]: 2.66 µM (active)
EC50 [5]: 11.6 µM (active)
IC50 [6]: 42.5 µM (active)
AC50 [7]: 15.5 µM (active)
IC50 [8]: 4 µM (active)
IC50 [9]: > 50 µM (inactive)
EC50 [10]: > 150 µM (inactive)
